Laboratory results reported in ChEMBL document CHEMBL1147406, “Polar substitutions in the benzenesulfonamide ring of celecoxib afford a potent 1,5-diarylpyrazole class of COX-2 inhibitors” (Bioorg Med Chem Lett, 2004).

Assays:
[1] = target: T1, Prostaglandin G/H synthase 2 (Homo sapiens, UniProt P35354); assay: Inhibitory activity against human Prostaglandin G/H synthase 2 expressed in sf-9 cells infected with baculovirus; format: cell-based, Sf9
T1 sequence (P35354 whole entry): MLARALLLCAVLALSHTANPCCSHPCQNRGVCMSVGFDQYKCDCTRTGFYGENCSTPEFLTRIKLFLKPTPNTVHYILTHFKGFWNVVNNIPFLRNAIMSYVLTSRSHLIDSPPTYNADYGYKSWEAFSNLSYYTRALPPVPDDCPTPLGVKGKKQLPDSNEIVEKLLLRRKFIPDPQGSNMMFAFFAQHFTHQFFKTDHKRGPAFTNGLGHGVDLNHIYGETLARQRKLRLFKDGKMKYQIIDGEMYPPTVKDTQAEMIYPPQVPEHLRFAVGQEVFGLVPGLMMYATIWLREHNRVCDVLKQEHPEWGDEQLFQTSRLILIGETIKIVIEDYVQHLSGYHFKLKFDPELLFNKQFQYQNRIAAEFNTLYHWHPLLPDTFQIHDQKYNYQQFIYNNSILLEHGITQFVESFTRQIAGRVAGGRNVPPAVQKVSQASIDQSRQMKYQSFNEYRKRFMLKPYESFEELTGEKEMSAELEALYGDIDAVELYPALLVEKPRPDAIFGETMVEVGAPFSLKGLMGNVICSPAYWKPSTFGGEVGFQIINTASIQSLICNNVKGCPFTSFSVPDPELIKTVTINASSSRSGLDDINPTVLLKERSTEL

[2] = target: T2, Prostaglandin G/H synthase 1 (Ovis aries, UniProt P05979)
T2 sequence (P05979 whole entry): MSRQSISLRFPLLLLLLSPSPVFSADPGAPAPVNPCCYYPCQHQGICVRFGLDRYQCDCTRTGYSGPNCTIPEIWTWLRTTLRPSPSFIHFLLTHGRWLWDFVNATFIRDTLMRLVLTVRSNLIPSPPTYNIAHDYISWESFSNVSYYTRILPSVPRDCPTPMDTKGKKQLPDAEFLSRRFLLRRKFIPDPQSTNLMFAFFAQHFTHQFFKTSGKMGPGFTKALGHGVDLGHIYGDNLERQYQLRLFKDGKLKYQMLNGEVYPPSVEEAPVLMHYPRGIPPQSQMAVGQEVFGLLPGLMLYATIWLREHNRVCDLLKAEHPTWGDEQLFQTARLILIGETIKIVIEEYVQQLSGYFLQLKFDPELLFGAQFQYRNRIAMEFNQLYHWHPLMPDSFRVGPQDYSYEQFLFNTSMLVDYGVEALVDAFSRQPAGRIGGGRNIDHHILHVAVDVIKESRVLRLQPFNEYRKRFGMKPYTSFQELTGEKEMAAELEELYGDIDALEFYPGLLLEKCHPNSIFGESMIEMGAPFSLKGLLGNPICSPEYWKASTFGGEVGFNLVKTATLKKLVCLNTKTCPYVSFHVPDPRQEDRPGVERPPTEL

[3] = target: T3, Prostaglandin G/H synthase 2 (Homo sapiens) (UniProt P35354); assay: Inhibitory activity of compound against human Prostaglandin G/H synthase 2 expressed in sf-9 cells infected with baculovirus at 100 uM concentration; settings: Sf9
T3 sequence (whole entry): T1 sequence (P35354 whole entry)

[4] = target: T4, Prostaglandin G/H synthase 1 (Ovis aries) (UniProt P05979); assay: Inhibitory activity against prostaglandin G/H synthase 1 from ram seminal vesicles at 100 uM concentration
T4 sequence (whole entry): T2 sequence (P05979 whole entry)

[5] = target: T3, Prostaglandin G/H synthase 2 (Homo sapiens); assay: Inhibitory activity of compound against human cyclooxygenase-2 expressed in sf-9 cells infected with baculovirus at 10 uM concentration; settings: Sf9
[6] = target: T4, Prostaglandin G/H synthase 1 (Ovis aries); assay: Inhibitory activity of compound against prostaglandin G/H synthase 1 from ram seminal vesicles at 10 uM concentration
[7] = target: T4, Prostaglandin G/H synthase 1 (Ovis aries); assay: Inhibitory activity of compound against Prostaglandin G/H synthase 1 from ram seminal vesicles at 10 uM concentration

Row | IC50 [1] | IC50 [2] | Structure (SMILES) | other results
1 | 0.592 µM | 230 µM | NS(=O)(=O)c1ccc(-n2nc(C(F)(F)F)cc2-c2ccc(Br)cc2)cc1CO | –
2 | 51.2 µM | 300 µM | CCSc1ccc(-c2cc(C(F)(F)F)nn2-c2ccc(S(N)(=O)=O)c(CO)c2)cc1 | –
3 | 1.38 µM | 500 µM | CCc1ccc(-c2cc(C(F)(F)F)nn2-c2ccc(S(N)(=O)=O)c(CO)c2)cc1 | –
4 | 1.95 µM | 465 µM | NS(=O)(=O)c1ccc(-n2nc(C(F)(F)F)cc2-c2cccc(Cl)c2)cc1CO | –
5 | 0.76 µM | 278 µM | Cc1ccc(-c2cc(C(F)(F)F)nn2-c2ccc(S(N)(=O)=O)c(CO)c2)cc1 | –
6 | 0.365 µM | 63 µM | COc1ccc(-c2cc(C(F)(F)F)nn2-c2ccc(S(N)(=O)=O)c(CO)c2)cc1 | –
7 | 0.712 µM | 336 µM | NS(=O)(=O)c1ccc(-n2nc(C(F)(F)F)cc2-c2ccc(Cl)cc2)cc1CO | –
8 | 0.235 µM | 59.7 µM | CSc1ccc(-c2cc(C(F)(F)F)nn2-c2ccc(S(N)(=O)=O)c(CO)c2)cc1 | –
9 | 0.728 µM | 327 µM | Cc1cccc(-c2cc(C(F)(F)F)nn2-c2ccc(S(N)(=O)=O)c(CO)c2)c1 | –
10 | 0.901 µM | 135 µM | CCOc1ccc(-c2cc(C(F)(F)F)nn2-c2ccc(S(N)(=O)=O)c(CO)c2)cc1 | –
11 | 3.45 µM | 1090 µM | NS(=O)(=O)c1ccc(-n2nc(C(F)(F)F)cc2-c2ccccc2)cc1CO | –
12 | 3.2 µM | 300 µM | COc1ccc(-c2cc(C(F)(F)F)nn2-c2ccc(S(C)(=O)=O)c(CO)c2)cc1 | –
13 | 1.99 µM | 500 µM | NS(=O)(=O)c1ccc(-n2nc(C(F)(F)F)cc2-c2ccc(F)cc2)cc1CO | –
14 | 7.05 µM | 1000 µM | NS(=O)(=O)c1ccc(-n2nc(C(F)(F)F)cc2-c2cccc(F)c2)cc1CO | –
15 | 3.3 µM | 500 µM | NS(=O)(=O)c1ccc(-n2nc(C(F)(F)F)cc2-c2ccccc2F)cc1CO | –

Continued, compound first:

Row | Structure (SMILES) | IC50 [1] | IC50 [2] | other results
16 | COc1ccccc1-c1cc(C(F)(F)F)nn1-c1ccc(S(N)(=O)=O)c(CO)c1 | 28.6 µM | 1150 µM | –
17 | COc1ccc(-c2cc(C(F)(F)F)nn2-c2ccc3c(c2)CCS3(=O)=O)cc1 | – | – | inhibition [3]: 36%; inhibition [4]: 86%
18 | CS(=O)(=O)c1ccc(-c2cc(C(F)(F)F)nn2-c2ccc(S(N)(=O)=O)c(CO)c2)cc1 | – | – | inhibition [3]: 29%; inhibition [4]: 68%
19 | Cc1ccc(-c2cc(C(F)(F)F)nn2-c2ccc3c(c2)CCS3(=O)=O)cc1 | – | – | inhibition [3]: 10%; inhibition [4]: 90%
20 | CC(=O)NCc1cc(-n2nc(C(F)(F)F)cc2-c2ccc(C)cc2)ccc1S(N)(=O)=O | 6.85 µM | 4.62 µM | –
21 | NS(=O)(=O)c1ccc(-n2nc(C(F)(F)F)cc2-c2ccc(O)cc2)cc1CO | – | – | inhibition [5]: 19%; inhibition [6]: 0%
22 | CC(=O)NCc1cc(-n2nc(C(F)(F)F)cc2-c2ccc(Cl)cc2)ccc1S(N)(=O)=O | 5 µM | 100 µM | –
23 | NS(=O)(=O)c1ccc(-n2nc(C(F)(F)F)cc2-c2ccccc2Cl)cc1CO | 6.3 µM | 512 µM | –
24 | COc1ccc(-c2cc(C(F)(F)F)nn2-c2ccc(S(N)(=O)=O)c(CNC(C)=O)c2)cc1 | 2.8 µM | 100 µM | –
25 | CSc1ccc(-c2cc(C(F)(F)F)nn2-c2ccc(S(N)(=O)=O)c(C(C)O)c2)cc1 (stereo not given) | – | – | inhibition [3]: 50%; inhibition [4]: 6%
26 | COc1ccc(-c2cc(C(F)(F)F)nn2-c2ccc3c(c2)CNS3(=O)=O)cc1 | – | – | inhibition [3]: 12%; inhibition [4]: 85%
27 | CC(C)Cc1ccc(-c2cc(C(F)(F)F)nn2-c2ccc(S(N)(=O)=O)c(CO)c2)cc1 | – | – | inhibition [3]: 14%; inhibition [4]: 4%
28 | CCC(=O)OCc1cc(-n2nc(C(F)(F)F)cc2-c2ccc(C)cc2)ccc1S(N)(=O)=O | 0.57 µM | 34.6 µM | –
29 | CCOC(=O)OCc1cc(-n2nc(C(F)(F)F)cc2-c2ccc(C)cc2)ccc1S(C)(=O)=O | – | – | inhibition [5]: 0%; inhibition [7]: 9%
30 | COc1ccc(-c2cc(C(F)(F)F)nn2-c2ccc3c(c2)COS3(=O)=O)cc1 | – | – | inhibition [3]: 36%; inhibition [4]: 92%
31 | CSc1ccc(-c2cc(C(F)(F)F)nn2-c2ccc(S(C)(=O)=O)c(CO)c2)cc1 | – | – | inhibition [3]: 45%; inhibition [4]: 0%
32 | COc1ccc(-c2cc(C(F)(F)F)nn2-c2ccc(S(C)(=O)=O)c(C=O)c2)cc1 | – | – | inhibition [3]: 100%; inhibition [5]: 44%; inhibition [4]: 92%
